Experimental data published in ChEMBL document CHEMBL4390657, “Discovery of arylbenzylamines as PDE4 inhibitors with potential neuroprotective effect” (Eur J Med Chem, 2019).
Activity calls are given as the source filed them. No cut-off for these calls is given here.

Experiments:
[1] = molecular target: T1, 3',5'-cyclic-AMP phosphodiesterase 4B (Homo sapiens, UniProt Q07343); experiment: Inhibition of human full length N-terminal GST-tagged PDE4B1 expressed in baculovirus infected Sf9 cells using cAMP as substrate incubated for 1 hr by fluorescence polarization assay
[2] = Inhibition of human N-terminal GST-tagged PDE4D7 (2 to 748 residues) expressed in baculovirus infected Sf9 cells using cAMP as substrate after 1 hr by fluorescence polarization assay
SH-SY5Y [3] = experiment: Neuroprotective activity in human SH-SY5Y cells assessed as reduction in MPP+ induced cytotoxicity at 30 to 60 uM preincubated for 1 hr followed by MPP+ addition and measured after 48 hrs by MTT assay; assay type: functional, cell-based
SH-SY5Y [4] = experiment: Neuroprotective activity against MPP+-induced cell apoptosis in human SH-SY5Y cells assessed as effect on morphological changes at 30 to 60 uM preincubated for 1 hr followed by MPP+ addition and measured after 48 hrs by PI staining based inverse fluorescent microscopic analysis; assay type: functional
[5] = AUC (0 to infinity) in Sprague-Dawley rat at 2 mg/kg, iv by measured up to 24 hrs by LC-MS /MS analysis; assay type: ADME, organism-based; parameters: dose 2 mg/kg, time infinity, route intravenous; settings: in vivo
[6] = AUC (0 to t) in Sprague-Dawley rat at 10 mg/kg, po by measured up to 24 hrs by LC-MS /MS analysis; assay type: ADME, organism-based; parameters: time < 24 hr, dose 10 mg/kg, route oral; settings: in vivo
[7] = Half life in Sprague-Dawley rat at 2 mg/kg, iv by measured up to 24 hrs by LC-MS /MS analysis; assay type: ADME, organism-based; settings: in vivo
[8] = Cmax in Sprague-Dawley rat at 10 mg/kg, po by measured up to 24 hrs by LC-MS /MS analysis; assay type: ADME, organism-based; parameters: dose 10 mg/kg, route oral; settings: in vivo
[9] = Half life in Sprague-Dawley rat at 10 mg/kg, po by measured up to 24 hrs by LC-MS /MS analysis; assay type: ADME, organism-based; settings: in vivo
[10] = Mean residence time (0 to infinity) in Sprague-Dawley rat at 2 mg/kg, iv by measured up to 24 hrs by LC-MS /MS analysis; assay type: ADME, organism-based; settings: in vivo
[11] = Tmax in Sprague-Dawley rat at 10 mg/kg, po by measured up to 24 hrs by LC-MS /MS analysis; assay type: ADME, organism-based; settings: in vivo
SH-SY5Y [12] = experiment: Cytotoxicity against human SH-SY5Y cells assessed as reduction in cell viability at 3.1 to 50 uM incubated for 48 hrs by MTT assay; assay type: cell-based
[13] = Clearance in Sprague-Dawley rat at 2 mg/kg, iv by measured up to 24 hrs by LC-MS /MS analysis; assay type: ADME, organism-based; settings: in vivo
[14] = Mean residence time (0 to infinity) in Sprague-Dawley rat at 10 mg/kg, po by measured up to 24 hrs by LC-MS /MS analysis; assay type: ADME, organism-based; settings: in vivo
[15] = Oral bioavailability in Sprague-Dawley rat at 10 mg/kg by measured up to 24 hrs by LC-MS /MS analysis; assay type: ADME, organism-based; settings: in vivo
[16] = Volume of distribution at steady state in Sprague-Dawley rat at 2 mg/kg, iv by measured up to 24 hrs by LC-MS /MS analysis; assay type: ADME, organism-based; settings: in vivo, read-out: Vdss
[17] = Tmax in Sprague-Dawley rat at 2 mg/kg, iv by measured up to 24 hrs by LC-MS /MS analysis; assay type: ADME, organism-based; settings: in vivo
[18] = AUC (0 to infinity) in Sprague-Dawley rat at 10 mg/kg, po by measured up to 24 hrs by LC-MS /MS analysis; assay type: ADME, organism-based; parameters: dose 10 mg/kg, time infinity, route oral; settings: in vivo
[19] = molecular target: T1, 3',5'-cyclic-AMP phosphodiesterase 4B; experiment: Inhibition of human full length N-terminal GST-tagged PDE4B1 expressed in baculovirus infected Sf9 cells using cAMP as substrate incubated for 1 hr by fluorescence polarization assay relative to control
[20] = Cmax in Sprague-Dawley rat at 2 mg/kg, iv by measured up to 24 hrs by LC-MS /MS analysis; assay type: ADME, organism-based; parameters: dose 2 mg/kg, route intravenous; settings: in vivo
[21] = AUC (0 to t) in Sprague-Dawley rat at 2 mg/kg, iv by measured up to 24 hrs by LC-MS /MS analysis; assay type: ADME, organism-based; parameters: dose 2 mg/kg, time < 24 hr, route intravenous; settings: in vivo

T1 sequence (Q07343 whole entry, the tested form may be a part): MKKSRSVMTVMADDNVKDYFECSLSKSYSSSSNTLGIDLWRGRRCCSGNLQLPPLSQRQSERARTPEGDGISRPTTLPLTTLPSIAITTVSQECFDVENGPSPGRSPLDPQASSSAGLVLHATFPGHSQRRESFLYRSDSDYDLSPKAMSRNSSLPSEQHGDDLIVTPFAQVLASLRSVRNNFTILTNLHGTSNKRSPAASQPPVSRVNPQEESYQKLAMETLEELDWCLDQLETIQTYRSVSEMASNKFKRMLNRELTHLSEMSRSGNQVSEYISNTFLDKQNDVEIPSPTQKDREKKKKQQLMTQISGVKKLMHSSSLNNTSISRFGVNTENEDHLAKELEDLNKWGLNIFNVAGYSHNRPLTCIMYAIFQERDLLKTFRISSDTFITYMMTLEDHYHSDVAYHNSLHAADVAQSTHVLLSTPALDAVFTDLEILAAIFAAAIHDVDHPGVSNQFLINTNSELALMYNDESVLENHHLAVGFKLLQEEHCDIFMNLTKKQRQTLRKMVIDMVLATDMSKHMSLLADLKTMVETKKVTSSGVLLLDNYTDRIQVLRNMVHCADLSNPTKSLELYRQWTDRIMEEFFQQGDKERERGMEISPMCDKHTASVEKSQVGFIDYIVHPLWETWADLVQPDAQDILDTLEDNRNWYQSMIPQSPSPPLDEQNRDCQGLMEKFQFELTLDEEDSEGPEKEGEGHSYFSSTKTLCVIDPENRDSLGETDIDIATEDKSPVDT

SMILES | IC50 [1] [µM] | IC50 [2] [nM] | also measured
FC(F)Oc1ccc(CN2CCOCC2)cc1-c1cccc(Cl)c1 | 4.1 | 2100 | –
COc1ccc(NCc2ccc(OC)c(-c3cccc(Cl)c3)c2)cc1 | > 10 | > 10000 | –
COc1ccc(C2CNC(=O)C2)cc1OC1CCCC1 (centres undefined) [ROLIPRAM] | – | 300 | –
COC(=O)c1ccc(NCc2ccc(OC)c(-c3cccc(Cl)c3)c2)cc1 | > 10 | > 10000 | –
COc1ccc(CNc2ccc(Cl)cc2)cc1-c1cccc(Cl)c1 | > 10 | > 10000 | –
O=C(Nc1ccccc1Cl)c1ccc(OC(F)F)c(OCC2CC2)c1 | 0.17 | 40 | –
COc1ccc(CN[C@@H](Cc2ccccc2)C(=O)O)cc1-c1cccc(Cl)c1 | > 10 | > 10000 | –
COc1ccc(CNc2cccnc2)cc1-c1cccc(F)c1 | 0.34 | 380 | Activity (SH-SY5Y [3]): Active; Activity (SH-SY5Y [4]): Active; AUC(0-inf) [5]: 327 ng·h/mL; AUC(0-t) at 24 h [6]: 84.4 ng·h/mL; half-life [7]: 75.6 min; Cmax [8]: 14.7 ng/mL; half-life [9]: 259 min; MRT inf [10]: 41.4 min; Tmax [11]: 3.33 h; Activity (SH-SY5Y [12]): Non-Toxic; clearance [13]: 103 mL/min/kg; MRT inf [14]: 7.61 h; bioavailability [15]: 8.2%; Vd [16]: 4.35 L/kg; Tmax [17]: 4.8 min; AUC(0-inf) [18]: 134 ng·h/mL; Imax [19]: 93%; Cmax [20]: 701 ng/mL; AUC(0-t) at 24 h [21]: 325 ng·h/mL
COc1ccc(CN2CCOCC2)cc1-c1cccc(Cl)c1 | 3.5 | 1800 | –
Clc1cccc(-c2cc(CNc3cccnc3)cc3c2OCC3)c1 | 0.94 | 1310 | –
COc1ccc(CN2CCC(O)CC2)cc1-c1cccc(Cl)c1 | > 10 | > 10000 | –
COc1ccc(CNc2ccc(F)cc2)cc1-c1cccc(Cl)c1 | > 10 | > 10000 | –
COc1ccc(CN[C@@H](Cc2c[nH]c3ccccc23)C(=O)O)cc1-c1cccc(Cl)c1 | > 100 | > 100000 | –
COc1ccc(CNc2cccnc2)cc1-c1cccc(Cl)c1 | 2.3 | 1200 | Imax [19]: 100%
COc1ccc(CN[C@H](C(=O)O)C(C)C)cc1-c1cccc(Cl)c1 | > 100 | > 100000 | –
COc1ccc(CNc2cccc(N(C)C)c2)cc1-c1cccc(Cl)c1 | > 100 | > 100000 | –
COc1cccc(-c2cc(CNc3cccnc3)ccc2OC)c1 | 0.68 | 1200 | Activity (SH-SY5Y [3]): Active; Activity (SH-SY5Y [4]): Active; Activity (SH-SY5Y [12]): Non-Toxic; Imax [19]: 90%
COc1ccc(CN2CCCC(C)C2)cc1-c1cccc(Cl)c1 (centres undefined) | > 10 | > 10000 | –
COc1ccc(CNc2ccccn2)cc1-c1cccc(Cl)c1 | > 10 | > 10000 | –
FC(F)Oc1ccc(CNc2cccnc2)cc1-c1cccc(Cl)c1 | > 10 | > 10000 | –
COc1ccc(NCc2ccc(OC)c(-c3cccc(Cl)c3)c2)cn1 | > 10 | > 10000 | –
COc1ccc(CN2CCOCC2)cc1-c1cccc(F)c1 | 3.7 | 2100 | –
Fc1cccc(-c2cc(CNc3cccnc3)cc3c2OCC3)c1 | 0.79 | 1280 | –
